Here are results for one compound from US20240150286A1, “PEROXISOME PROLIFERATOR-ACTIVATED RECEPTOR GAMMA (PPARy) LIGANDS AND METHODS OF USE AS TREATMENTS FOR INSULIN RESISTANCE, OBESITY, FATTY LIVER DISEASE, AND TYPE 2 DIABETES” (The Board of Regents of the University of Oklahoma, priority 2022, published 2024).

The subject of assay [1] is diet-induced obesity (DIO) mice. Nature of the assay: Glucose tolerance, insulin tolerance and serum biochemistry in DIO mice. It counts as in vivo, mouse. As for the experimental part: (§1) C57BL/6J male mice were obtained from Jackson laboratory (Bar Harbor, ME) and maintained on a 12 h light (6:00 AM to 6:00 PM)—12 h dark (6:00 PM to 6:00 AM) cycle at an ambient temperature of 22±1° C. All animals had access to diet and water ad libitum. All procedures involving animals were approved by the Institutional Animal Care and Use Committee of the University of Oklahoma Health Science Center. All experiments were performed with age-matched male mice. The mice were fed a high-fat diet (HFD) (60% kcal fat, Bio-Serv, NJ, USA) starting from the age of 6 weeks until study end. […] Food intake was determined manually by measuring the amount of input food subtracting the amount of the food remaining in the food hopper and the crumbs on the bedding of the cage each day for three days during the 4th week of the treatment. Packed cell volume (PCV) was measured with blood drawn from tail on a LW Scientific E8 centrifuge (LW Scientific, Lawrenceville, Georgia, USA) microhematocrit centrifuge at the end of study. For all other measurements, the blood was drawn at the time of euthanization.
Intraperitoneal glucose tolerance test (ipGTT) was performed after 6-h fasting. Blood glucose levels were measured at 0, 15, 30, 60, and 120 min glucometer (OneTouch Ultra 2 Meter) after an intraperitoneal administration of glucose at dose of 1.5 g/kg body weight. Intraperitoneal insulin tolerance test (ipITT) was performed after 6 h fasting. Blood glucose levels were measured at 0, 15, 30, 60, and 120 min after an intraperitoneal administration of human insulin at dose of 1.2 IU/kg body weight.
Serum insulin (ALPCO, NH, USA), serum cholesterol TG (Cayman Chem., MI, USA) and FFAs (Bioassay system, CA, USA) were determined by ELISA.

A further assay has as its target T1, human PPARγ2 (Homo sapiens, UniProt P37231).
T1 construct: host or cells: HEK-293
T1 sequence (P37231 1-505): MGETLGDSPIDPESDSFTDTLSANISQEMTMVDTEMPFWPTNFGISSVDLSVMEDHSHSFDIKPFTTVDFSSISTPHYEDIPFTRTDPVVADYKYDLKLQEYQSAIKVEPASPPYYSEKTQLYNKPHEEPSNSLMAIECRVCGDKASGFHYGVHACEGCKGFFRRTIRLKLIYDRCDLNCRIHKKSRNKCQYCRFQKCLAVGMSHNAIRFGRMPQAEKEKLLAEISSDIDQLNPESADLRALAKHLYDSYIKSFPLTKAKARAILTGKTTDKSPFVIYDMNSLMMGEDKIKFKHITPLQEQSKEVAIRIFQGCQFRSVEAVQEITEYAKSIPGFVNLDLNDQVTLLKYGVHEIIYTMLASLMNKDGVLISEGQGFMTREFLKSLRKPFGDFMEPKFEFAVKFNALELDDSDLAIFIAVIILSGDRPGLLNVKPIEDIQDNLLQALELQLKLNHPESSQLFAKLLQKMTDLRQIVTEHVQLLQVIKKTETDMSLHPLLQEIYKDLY
The experiment in a line: PPARγ transactivation reporter assay (3×PPRE-luc) in HEK-293 cells. It counts as cell-based. As for the experimental part:
HEK-293 cells were seeded overnight, co-transfected with plasmids expressing human PPARγ2 and 3×PPRE-luc (both from Addgene) followed by incubation for 16 h, and then re-seeded in a 384-well plate and incubated for 24 h. Compounds were added and then incubated another 24 h. Luciferase activity was analyzed in each well using Bright-Glo Luciferase kit (Promega).

The subject of assay [2] is adipose tissues (iWAT, eWAT, BAT) of DIO mice. The experiment in a line: Adipose tissue analyses in DIO mice (pS273 Western, qRT-PCR, UCP1, histology, CLS). It counts as in vivo, mouse. As for the experimental part:
as §1
Liver, heart, bone, adipose tissues were dissected and immediately fixed in 4% paraformaldehyde (Sigma-Aldrich), paraffin embedded, and stained with hematoxylin and eosin. For Immunofluorescence staining, the eWAT and iWAT paraffin sections were incubated with primary antibody (rabbit polyclonal to F4/80 [1:500, Cat #: 70076], Cell Signaling Technology) overnight at 4° C. after deparaffinization. The slides were washed thrice with PBS with 0.2% Triton and then incubated in secondary antibody, Alexa 488 anti-rabbit (1:500, Jackson ImmunoResearch, PA) for 1.5 h at room temperature. Tissue sections were imaged on the Olympus Fluoview 1000 laser-scanning confocal microscope (Center Valley, PA).
Total RNA (2 μg) was isolated from tissues or cells using TRIzol reagents (Life Technologies) and reverse transcribed using oligo d(T) primers (New England Biosystems) and SuperScript IV reverse transcription kit (Applied Biosystems). qPCR was performed in a CFX96 Touch Real-Time PCR detection system using SYBR Green mix (Applied Biosystems). The amplification program was as follows: initial denaturation at 95° C. for 15 min, followed by 40 cycles of 95° C. for 15 s, 60° C. for 1 min, and 40° C. for 30 s. Relative mRNA expression was determined by the ΔΔCt method normalized to TBP mRNA. The sequences of primers used in this study were shown in Table 1 in U.S. Provisional Application Ser. No. 63/419,049, the entirety of which is incorporated herein by reference.
Proteins were extracted with RIPA buffer containing protease and phosphatase inhibitors (Thermo) and then centrifuged for 10 min at 10,000 g. A 30 μg sample of protein was separated on a 10% SDS polyacrylamide gel and transferred to polyvinylidene-fluoride membrane for 1 h at 4° C. at 40 V. The membrane was blocked in TBS (10 mm Tris-HCl, pH 7.4, 150 mm NaCl) containing 5% non-fat dry milk for 1 h at room temperature and was probed with primary antibodies followed by the appropriate HRP-conjugated secondary antibodies (Anti-rabbit IgG, #7074, or Anti-mouse IgG, #7076, 1:5000 Cell Signaling Technology). The primary antibodies used were: anti-Ser-273 PPARγ (bs-4888R, Bioss Antibodies), anti-PPARγ antibody (sc-271392, Santa Cruz Biotechnology), anti-UCP1 (14670S, Cell Signaling Technology, Beverly, MA, USA).

The mark [3] stands for this setting: SVF of inguinal and epididymal adipose tissues, DIO mice.
[4] abbreviates: eWAT of DIO mice, 15 mg/kg i.p. daily 4 weeks.

For the compound `Cc1c(C)n(Cc2ccc(-c3ccccc3C(=O)O)cc2)c2ccc(C(=O)NCc3cccc(O)c3)cc12` [WO95E, 4′-((5-((3-hydroxybenzyl)carbamoyl)-2,3-dimethyl-1H-indol-1-yl)methyl)-[1,1′-biphenyl]-2-carboxylic acid], in assay [1] (15 mg/kg i.p. daily 4 weeks), the “serum level of free fatty acid” value is “decreased” and the total serum cholesterol result was “downward trend but did not reach statistically significant”. Also, in assay [1] (15 mg/kg i.p. daily 4 weeks, data not shown), the triglyceride level result is “unchanged”. Also, the “glucose tolerance (ipGTT, peak glucose and AUC)” value in assay [1] (15 mg/kg i.p. daily, 2 weeks, vs vehicle) is “significantly improved”. Besides, in assay [1] (15 mg/kg i.p. daily, 2.5 weeks, vs vehicle), the “insulin sensitivity (ipITT)” value is “enhanced”. Further, in assay [1] (15 mg/kg i.p. daily, vs vehicle), the “fasting and refeeding plasma levels of insulin” value is “markedly decreased”. Further, on human PPARγ2 (HEK293, PPARγ2 + 3×PPRE-luc), the “PPARγ transactivation reporter activation (in words)” value is recorded as “increased the reporter activity only weakly”. Besides, the “3×PPRE-luc reporter activity as % of potency of Rosi” value on human PPARγ2 (HEK293, PPARγ2 + 3×PPRE-luc, relative to Rosi) was roughly 15%. For the same compound, on human PPARγ2 (HEK293, PPARγ2 + 3×PPRE-luc, relative to UHC1), the “3×PPRE-luc reporter activity as % of potency of UHC1” value is roughly 33%. Also, the “3×PPRE reporter activation with GW9662 co-treatment” value on human PPARγ2 (compound 10 μM, GW9662 5 μM, HEK293) was “retained its moderate ability to activate the reporter”. Further, the “PPARγ S273 phosphorylation in iWAT” value in assay [2] (DIO mice, 15 mg/kg i.p. daily 4 weeks, Western blot) is reported as “markedly inhibited”. In assay [2] (DIO mice, 15 mg/kg i.p. daily 4 weeks, vs vehicle), the “mRNA levels of browning/thermogenic genes (Prdm16, Cidea, Ppara, CPT1a, UCP1, Cox5b, PGC1α) in iWAT” value is reported as “significantly increased”. Besides, in assay [2] (DIO mice, H&E sections, vs vehicle), the “adipocyte size in eWAT and iWAT” value is “significantly smaller”. The “UCP1 protein in iWAT and eWAT” value in assay [2] (DIO mice, Western blotting) is given as “dramatic induction”. Also, in assay [2] (DIO mice, data not shown), the “UCP1 protein in BAT” value is “an increase” and the “mRNA levels of thermogenic genes in BAT” value is on record as “increased mRNA expression levels of most of these genes”. Moreover, the “areas of crown-like structures (CLS) in iWAT and eWAT” value in assay [2] (DIO mice, vs vehicle) is listed as “dramatically reduced”. Moreover, in assay [2] (setting [3]), the “mRNA levels of M2 macrophage markers (IL4, IL10, Mg1I)” value is recorded as “up-regulated or unchanged” and the “mRNA levels of pan-macrophage markers (CD68, F4/80)” value was “significantly decreased”. In assay [2] (setting [4]), the “genes involved in lipogenesis or adipogenesis” value is recorded as “inhibited” and the “mRNA levels of S273 phosphorylation-repressed genes (Adiponectin, Adipsin, selenbp1, Car3, Ddx-17, Acyl, Rarres2, Cidec)” value is “up-regulated”. In addition, the “mRNA levels of proinflammatory M1 mediators (TNFα, IL1b, IL-6, mcp-1)” value in assay [2] (iWAT and eWAT, DIO mice) is recorded as “down-regulated”.
